Assay results as given in publication PMC3677961 (Chemical biology & drug design, 2008).
Each block holds one compound with its values, some of them ahead of it.

Experiments:
[1] = tested on: T. b. brucei; conditions: cited from earlier work
[2] = tested on: L. donovani axenic amastigotes; conditions: cited from earlier work
[3] = phase I and phase II clinical trials; cited from earlier work
[4] = target: T1, colchicine site of mammalian tubulin (Sus scrofa, UniProt P02550+P02554); conditions: cited from earlier work
[5] = tested on: mammalian tubulin; conditions: read-out: IC50 against mammalian tubulin; cited from earlier work
[6] = cited from earlier work
[7] = target: T1, colchicine site of mammalian tubulin; assay: Competition with MTPT for the colchicine site; assay type: binding; conditions: 5 μM mammalian tubulin, 5 μM MTPT
[8] = tested on: L. donovani axenic amastigotes; assay type: cell-based; conditions: Leishmania donovani, read-out: IC50 versus L. donovani axenic amastigotes
[9] = tested on: Vero cells; assay: Vero cell cytotoxicity; assay type: cell-based, African green monkey; conditions: Chlorocebus sabaeus, read-out: IC50 versus Vero Cells
[10] = tested on: TSU-Pr1; assay: SRB growth inhibition assay, TSU-Pr1 bladder cancer cell line; assay type: cell-based; conditions: Homo sapiens, TSU-Pr1, 96 h, read-out: Cancer cell line IC50, TSU-Pr1
[11] = tested on: LNCaP; assay: SRB growth inhibition assay, LNCaP prostate cancer cell line; assay type: cell-based; conditions: Homo sapiens, 96 h, read-out: Cancer cell line IC50, LNCaP
[12] = tested on: PPC1; assay: SRB growth inhibition assay, PPC-1 prostate cancer cell line; assay type: cell-based; conditions: Homo sapiens, PPC-1, 96 h, read-out: Cancer cell line IC50, PPC1
[13] = tested on: PC3; assay: SRB growth inhibition assay, PC-3 prostate cancer cell line; assay type: cell-based; conditions: Homo sapiens, PC-3, 96 h, read-out: Cancer cell line IC50, PC3
[14] = tested on: MCF7; assay: SRB growth inhibition assay, MCF-7 breast cancer cell line; assay type: cell-based; conditions: Homo sapiens, MCF7, 96 h, read-out: Cancer cell line IC50, MCF7
[15] = tested on: HT29; assay: SRB growth inhibition assay, HT-29 colon cancer cell line; assay type: cell-based; conditions: Homo sapiens, HT-29, 96 h, read-out: Cancer cell line IC50, HT29

SMILES: CCCN(CCC)c1c([N+](=O)[O-])cc(S(=O)(=O)Nc2ccccc2)cc1[N+](=O)[O-] [Compound 2, N1-phenyl-3,5-dinitro-N4,N4-di-n-propylsulfanilamide]
Activity against Trypanosoma brucei bloodstream forms (in words) [1]: mid-nanomolar activity | Activity against Leishmania donovani axenic amastigotes (in words) [2]: low micromolar activity

SMILES: COc1ccc(S(=O)(=O)Nc2cccnc2Nc2ccc(O)cc2)cc1 [Compound 28]
Oral bioavailability [3]: orally bioavailable | Binding site on mammalian tubulin [4]: bind to the colchicine site | IC50 [5]: 2200 nM

SMILES: COc1ccc(NS(=O)(=O)c2c(F)c(F)c(F)c(F)c2F)cc1F [Compound 29]
Toxicity in phase II clinical trials [6]: low levels of toxicity | Binding site on mammalian tubulin [4]: bind to the colchicine site | IC50 [5]: ~2000 nM

SMILES: COc1ccc(NS(=O)(=O)c2c(F)c(F)c(F)c(F)c2F)cc1NC(N)=O [Compound 30]
IC50 [5]: 2100 nM

SMILES: COc1ccc(CCc2cc(OC)c(OC)c(OC)c2)cc1O [Dihydrocombetastatin A4, dihydrocombretastatin A4]
Inhibition (%) of MTPT binding in presence of competitors ([7]; 2 μM competitor): 30 ± 1% | Inhibition (%) of MTPT binding in presence of competitors ([7]; 20 μM competitor): 69 ± 2% | Inhibition (%) of MTPT binding in presence of competitors ([7]; 50 μM competitor): 74 ± 2%

IC50 [8]: 3200 ± 1500 nM
SMILES: N=C(N)c1ccc(OCCCCCOc2ccc(C(=N)N)cc2)cc1 [Pentamidine]

SMILES: COc1cc([C@@H]2c3cc4c(cc3[C@H](O)[C@H]3COC(=O)[C@H]23)OCO4)cc(OC)c1OC [Podophyllotoxin]
IC50 [9]: 50 ± 30 nM

IC50 [10]: 1.6 ± 0.08 nM | IC50 [11]: 3.4 ± 0.9 nM | IC50 [12]: 1 ± 0.4 nM | IC50 [13]: 1.4 ± 0.3 nM | IC50 [14]: 1.3 ± 0.4 nM | IC50 [15]: 2.4 ± 0.2 nM
SMILES: CC[C@]1(O)C[C@@H]2CN(CCc3c([nH]c4ccccc34)[C@@](C(=O)OC)(c3cc4c(cc3OC)N(C)[C@H]3[C@@](O)(C(=O)OC)[C@H](OC(C)=O)[C@]5(CC)C=CCN6CC[C@]43[C@@H]65)C2)C1 [Vinblastine]
